Where two headings read alike, the source gives them in different places.
Assays:
[1] = Solubility in aqueous buffer; assay type: physicochemical; details: pH range 5.0–7.4
human CXCR6 receptor [2] = molecular target: T1, human CXCR6 receptor (Homo sapiens, UniProt O00574); assay: Antagonism of CXCL16; assay type: cell-based; details: vs ML339
human CXCR6 receptor [3] = molecular target: T1, human CXCR6 receptor; assay type: cell-based
[4] = Metabolic stability in mouse liver microsomes; assay type: in vitro ADME; details: within 1h
human liver microsomes = assay: Metabolic stability in human liver microsomes; assay type: in vitro ADME; details: within 1h
[5] = Stability in mouse plasma; assay type: in vitro ADME
SK-HEP-1 hepatoma cells = assay: SK-Hep-1 invasion/migration, live cell transwell assay; assay type: cell-based, human; details: for effect on SK-Hep-1 invasion in words: live cell transwell assay
Plasma protein binding = assay type: in vitro ADME
[6] = Stability in human plasma; assay type: in vitro ADME
[7] = Rapid Assessment of Compound Exposure; assay type: in vivo, mouse
PAMPA permeability = assay type: in vitro ADME
CXCR5 human receptor = details: read-out: IC50 against CXCR5; previously reported; cited from earlier work
CXCR4 human receptor = details: read-out: IC50 against CXCR4; previously reported; cited from earlier work
CCR6 human receptor = details: read-out: IC50 against CCR6; previously reported; cited from earlier work

T1 sequence (O00574 whole entry): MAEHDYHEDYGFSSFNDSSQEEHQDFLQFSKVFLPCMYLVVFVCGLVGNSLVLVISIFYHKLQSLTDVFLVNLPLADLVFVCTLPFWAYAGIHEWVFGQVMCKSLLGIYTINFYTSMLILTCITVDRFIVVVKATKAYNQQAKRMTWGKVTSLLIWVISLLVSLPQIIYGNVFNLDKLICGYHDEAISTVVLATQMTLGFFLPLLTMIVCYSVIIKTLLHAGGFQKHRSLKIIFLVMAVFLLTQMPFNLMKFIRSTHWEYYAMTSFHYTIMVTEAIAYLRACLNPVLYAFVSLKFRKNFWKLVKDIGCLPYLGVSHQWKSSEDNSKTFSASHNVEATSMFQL

In the case of `COc1cc(C(=O)N[C@@H]2C[C@H]3CCC[C@@H](C2)N3Cc2nc3c(C(F)(F)F)cccc3s2)cc(OC)c1OC` [Compound 81], the solubility in words [1] is reported as “good solubility”, the “fold improvement in potency in cAMP assay” value (human CXCR6 receptor [2]) is reported as ≥ 10 fold and the EC50 (human CXCR6 receptor [3]) is reported as 0.04 µM. The “fold improvement in potency in β-arrestin assay” value (human CXCR6 receptor [3]; vs ML339) was ≥ 10 fold, the “metabolism in mouse liver microsomes in words” value [4] was “almost completely metabolized” and the “metabolism in human liver microsomes in words” value (human liver microsomes) was “almost completely metabolized”. For the same compound, the “stability in mouse plasma in words” value [5] was “excellent stability”, the “SK-HEP-1 tumor growth vs vehicle in words” value (SK-HEP-1 tumor; 30 mg/kg oral, Day 4 to Day 30, P < 0.0005) was “significantly inhibited” and the “SK-HEP-1 tumor growth vs vehicle in words” value (SK-HEP-1 tumor; 60 mg/kg oral, Day 4 to Day 30, P < 0.0002) was “significantly inhibited”. The “toxicity to mice in words” value (SK-HEP-1 tumor; 30 and 60 mg/kg, 30-day study) was “non-toxic”, the “cell viability in words” value (SK-HEP-1 hepatoma cells; SK-HEP-1, 72 h) was “without loss in cell viability” and the “plasma protein binding in words” value (Plasma protein binding) was “high plasma protein binding”. For the same compound, the “stability in human plasma in words” value [6] was “excellent stability”, the “exposure in RACE assay in words” value ([7]; 10 mg/kg oral dose, DMSO: Tw80: H2O (1:1:8)) was “good exposure” and the bioavailability in words ([7]; mice) was “good bioavailability”. For the same compound, the “PAMPA permeability in words” value (PAMPA permeability) was “good PAMPA permeability”.
With `COc1cc(C(=O)N[C@@H]2C[C@H]3CCC[C@@H](C2)N3Cc2nc3c(Cl)cccc3s2)cc(OC)c1OC` [Compound 73] the “effect on SK-Hep-1 invasion in words” value (SK-HEP-1 hepatoma cells) was “inhibited invasion”.
For `COc1cc(C(=O)N[C@@H]2C[C@H]3CCC[C@@H](C2)N3CC(=O)Nc2ccccc2Cl)cc(OC)c1OC` [Compound 17], the IC50 (CXCR5 human receptor) is listed as > 80 µM, the IC50 (CXCR4 human receptor) is listed as > 80 µM and the IC50 (CCR6 human receptor) is listed as > 80 µM.
With `O=C(CN1[C@@H]2CCC[C@H]1C[C@H](NC(=O)c1ccccc1)C2)Nc1ccccc1` [Compound 6] the “effect on SK-Hep-1 invasion in words” value (SK-HEP-1 hepatoma cells) was “had no effect”.
For `COc1cc(C(=O)N[C@@H]2C[C@H]3CCC[C@@H](C2)N3CC(=O)c2nc3ccccc3s2)cc(OC)c1OC` [Compound 72], the “fold loss in activity” value (human CXCR6 receptor [3]; carbonyl linkage, comparator not named) was 100 fold.
For `COc1cc(C(=O)N[C@@H]2C[C@H]3CCC[C@@H](C2)N3Cc2ccccc2Cl)cc(OC)c1OC` [Compound 59], the “fold lower activity than compound 17” value (human CXCR6 receptor [3]; vs compound 17) was 48 fold.

From article PMC8011643 (Bioorganic & medicinal chemistry letters, 2019)
